Test results from paper doi:10.1101/2021.09.28.462264v1 (biorxiv, 2021).
Where two headings read alike, the source gives them in different places.

Experiments:
Details in all cases: 10 mM MgCl2, 100 mM Tris pH 8.0, 25 °C
PcIPMS1 [1] = assay: DTNB end-point spectrophotometric assay; format: biochemical, Pogostemon cablin
PcIBMS1 [2] = assay: DTNB end-point spectrophotometric assay; format: biochemical, Pogostemon cablin
PcIPMS1 [3] = system: PcIPMS1
PcIBMS1 [4] = system: PcIBMS1

CC(=O)SCCNC(=O)CCNC(=O)[C@H](O)C(C)(C)COP(=O)(O)OP(=O)(O)OC[C@H]1O[C@@H](n2cnc3c(N)ncnc32)[C@H](O)[C@@H]1OP(=O)(O)O [acetyl-CoA]
Km (PcIPMS1 [1]; 2 mM 2-oxoisovalerate): 48.1 ± 2.8 µM | Km (PcIBMS1 [2]; 2 mM 4-methyl-2-oxovalerate): 145 ± 21.2 µM | Km (PcIPMS1 [3]; 2 mM 2-oxoisovalerate): 22.7 ± 1.9 µM | Km (PcIBMS1 [4]; 2 mM 4-methyl-2-oxovalerate): 132 ± 6.5 µM

CC(C)CC(=O)C(=O)O [4-methyl-2-oxovalerate]
Km (PcIBMS1 [2]; 1 mM acetyl-CoA): 140 ± 39.4 µM | Km (PcIBMS1 [4]; 1 mM acetyl-CoA): 95 ± 17.9 µM

CC(C)C(=O)C(=O)O [2-oxoisovalerate]
Km (PcIPMS1 [1]; 1 mM acetyl-CoA): 288 ± 8.2 µM | Km (PcIBMS1 [2]; 1 mM acetyl-CoA): 1300 ± 128 µM | Km (PcIPMS1 [3]; 1 mM acetyl-CoA): 622 ± 58.3 µM | Km (PcIBMS1 [4]; 1 mM acetyl-CoA): 444 ± 44.4 µM
